The NIST ThermoML archive (doi:10.1016/j.fluid.2004.11.022)

What was measured:
[1] = osmotic coefficient (dimensionless); mn = molality of the nth substance listed, in mol/kg; conditions: 298.15 K, Liquid, isopiestic method
[2] = mn = molality of the nth substance listed, in mol/kg; conditions: 298.15 K, 101.3 kPa, Liquid

[Cl-].[Cl-].[Zn+2] [zinc chloride] + CCO
Conditions | mass density [kg/m3] | osmotic coefficient
[1], m1 = 0.219 | – | 0.359
[1], m1 = 0.4046 | – | 0.332
[1], m1 = 0.4882 | – | 0.352
[1], m1 = 0.5854 | – | 0.358
[1], m1 = 0.7111 | – | 0.36
[1], m1 = 0.7875 | – | 0.379
[1], m1 = 0.8946 | – | 0.383
[1], m1 = 1.057 | – | 0.405
[1], m1 = 1.087 | – | 0.403
[1], m1 = 1.205 | – | 0.416
[1], m1 = 1.227 | – | 0.422
[1], m1 = 1.353 | – | 0.441
[1], m1 = 1.446 | – | 0.443
[1], m1 = 1.567 | – | 0.458
[1], m1 = 1.666 | – | 0.472
[1], m1 = 1.765 | – | 0.482
[1], m1 = 1.889 | – | 0.494
[1], m1 = 1.973 | – | 0.506
[1], m1 = 2.115 | – | 0.519
[1], m1 = 2.233 | – | 0.542
[1], m1 = 2.408 | – | 0.56
[1], m1 = 2.455 | – | 0.571
[1], m1 = 2.61 | – | 0.594
[1], m1 = 2.712 | – | 0.616
[2], m1 = 0.0018 | 785.28 | –
[2], m1 = 0.0035 | 785.46 | –
[2], m1 = 0.0053 | 785.67 | –
[2], m1 = 0.0087 | 786.03 | –
[2], m1 = 0.0106 | 786.24 | –
[2], m1 = 0.0127 | 786.47 | –
[2], m1 = 0.0167 | 786.9 | –
[2], m1 = 0.0185 | 787.09 | –
[2], m1 = 0.0227 | 787.56 | –
[2], m1 = 0.033 | 788.63 | –
[2], m1 = 0.0394 | 789.3 | –
[2], m1 = 0.0471 | 790.1 | –
[2], m1 = 0.051 | 790.5 | –
[2], m1 = 0.0551 | 790.94 | –
[2], m1 = 0.0624 | 791.69 | –
[2], m1 = 0.0691 | 792.36 | –
[2], m1 = 0.0734 | 792.8 | –
[2], m1 = 0.0781 | 793.28 | –
[2], m1 = 0.0825 | 793.72 | –
[2], m1 = 0.0921 | 794.68 | –
[2], m1 = 0.1035 | 795.81 | –
[2], m1 = 0.1713 | 802.4 | –
[2], m1 = 0.2776 | 812.39 | –
[2], m1 = 0.4056 | 824.04 | –
[2], m1 = 0.5788 | 839.34 | –
[2], m1 = 0.6875 | 848.7 | –
[2], m1 = 0.8432 | 861.8 | –
[2], m1 = 1.086 | 881.52 | –
[2], m1 = 1.132 | 885.11 | –
[2], m1 = 1.312 | 899.05 | –
[2], m1 = 1.346 | 901.59 | –
[2], m1 = 1.542 | 916.09 | –
[2], m1 = 1.689 | 926.54 | –
[2], m1 = 1.883 | 940 | –
[2], m1 = 2.041 | 950.61 | –
[2], m1 = 2.204 | 961.4 | –
[2], m1 = 2.402 | 974.29 | –
[2], m1 = 2.541 | 983.29 | –
[2], m1 = 2.776 | 998.74 | –
